# From patent publication US20030171406A1, “Medicinal compositions containing propenone derivatives” (priority 2000, published 2003)
# Like-named read-outs stand apart in the source and are kept apart here.
# Tests used:
# HIV (HTLV-IIIB strain) = test: MTT assay, MT-4 cells infected with HIV; assay type: cell-based; conditions: 5 days, inhibits 50% of cell damage caused by virus
# Protocol: The inhibitory effects of each anti-human immunodeficiency virus active substance against human immunodeficiency virus have been determined by MTT assay described below.
# (1) Human T cell strain Molt-4 clone 8 persistently infected HIV (HTLV-IIIB strain) was cultivated in RPMI-1640 medium supplemented with 10% fatal bovine serum, and supernatant was filtered, measured RT activity, and stored at −80° C. On the other hand, each human anti-immunodeficiency virus active substance was diluted to fixed concentration in culture medium, they were plated to 96-well microtiter plate. Subsequently, 100 μL (3.5×10^4 cells) of MT-4 cell suspension was plated to 96-well microtiter plate, and then above mentioned supernatant containing HIV, which was diluted by culture medium, was added 50 μL (60 pfu (plaque forming unit.)) to 96-well microtiter plate.
# (2) After cultivation at 37° C. for 5 days in CO2 incubator, into all well was added 30 μL per well 3-(4,5-[…])-2,5-diphenyltetrazolium bromide (MTT) 5 mg/mL) and PBS, and then incubated for 1 h.
# In this time, alive cells reduced MTT and formazan was precipitated, therefore, 150 μL of cell supernatants were removed from all wells, and then 150 μL of lysate (10% triton X-100 and 0.4% (v/v) HCl-containing isopropanol) was added, and formazan was eluated on a plate shaker.
# HIV-1 integrase = HIV-1 integrase (Human immunodeficiency virus type 1 group M subtype B, UniProt P12497); test: HIV-1 integrase inhibition assay (microtiter plate, substrate/target DNA)
# Protocol: Substrate DNA and target DNA, which sequences were indicated below, were synthesized by Amersham Pharmacia Biotech and dissolved in KTE buffer (composition: 100 mM KCl, 1 mM EDTA, 10 mM Tris-HCl (pH 7.6)) at concentration of 2 pmol/μL and 5 pmol/μL, respectively. The DNA solutions were annealed with each complement by slowly cooling after heating.
# (2) Calculations of the percent inhibitions (the IC50 values of test compounds)
# Streptavidin, obtained from Vector Laboratories, was dissolved in 0.1 M carbonate buffer (composition: 90 mM Na2CO3, 10 mM NaHCO3) at concentration of 40 μg/mL. After coating each well of microtiter plates (obtained from NUNC) with 50 μL of the above solution at 4° C. over night, each well was washed twice with PBS (composition: 13.7 mM NaCl, 0.27 mM KCl, 0.43 mM Na2HPO4, 0.14 mM KH2PO4) and blocked with 300 μL of 1% skim milk in PBS for 30 min. Additionally, each well was washed twice with PBS and added 50 μL of substrate DNA solution (2 pmol/μL). The microtiter plates were kept at room temperature for 30 min. Then, each well was washed twice with PBS and once with H2O.
# Subsequently, in the each well prepared above were added 45 μL of the reaction buffer prepared from 12 μL of the buffer (composition: 150 mM MOPS (pH 7.2), 75 mM MnCl2, 50 mM 2-mercaptoethanol, 25% glycerol, 500 μg/mL bovine serum albumin-fraction V), 1 μL of target DNA (5 pmol/μL), and 32 μL of the distilled water. Additionally, 6 μL of either a test compound in DMSO or DMSO for positive control(PC) was mixed with the above reaction buffer, then 9 μL of an integrase solution (30 pmol) was added and mixed well. In the well of negative control (NC) was added 9 μL of the integrase dilution buffer (composition: 20 mM MOPS (pH7.2), 400 mM potassium glutamate, 1 mM EDTA, 0.1% NP-40, 20% glycerol, 1 mM DTT, 4M urea).
# The microtiter plates were incubated at 30° C. for 1 hour. The reaction solution was removed and each well was washed twice with PBS. Subsequently, each well of the microtiter plates was filled with 100 μL of anti-digoxigenin antibody labeled with alkaline phosphatase (Sheep Fab fragment: obtained from Boehringer) and incubated at 30° C. for 1 hour. Then, each well was washed twice with 0.05% Tween20 in PBS and once with PBS. Next, 150 μL of the Alkaline phosphatase reaction buffer (composition: 10 mM p-Nitrophenylphosphate (obtained from Vector Laboratories), 5 mM MgCl2, 100 mM NaCl, 100 mM Tris-HCl (pH 9.5))was added in each well. […] The optical density (OD) at 405 nm of each well was measured and the percent inhibition was determined by the following expression.
# The percent inhibition (%)=100[1-{(C abs.−NC abs.)/(PC abs.−NC abs.)}]
# C abs.; the OD of the well of the compounds
# NC abs.: the OD of the negative control (NC)
# PC abs.: the OD of the positive control (PC)
# IC50(μg/mL)=x-{(X-50)(x-y)/(X-Y)}
# [1] = Human immunodeficiency virus 1, MT4, 120 h, read-out: EC50
Compound,EC50 (HIV (HTLV-IIIB strain)) [µg/mL],EC50 (HIV (HTLV-IIIB strain); [1]) [µg/mL],melting point [°C],IC50 (HIV-1 integrase) [nM]
"5-[(:3,5-dichlorophenyl)thio]-4-(1-methylethyl)-1-(4-pyridynylmethyl)-1H-imidazole-2-methanol carbamate [Capravirine]",0.0014,,,
"Cc1c(O)cccc1C(=O)N[C@@H](CSc1ccccc1)[C@H](O)CN1C[C@H]2CCCC[C@H]2C[C@H]1C(=O)NC(C)(C)C (relative stereo) [Nelfinavir, [3S-[2(2S*,3S*),3α,4aβ,8aβ]]-N-(1,1-dimethylethyl)-decahydro-2-[2-hydroxy-3-[(3-hydroxy-2-methylbenzoyl)amino]-4-(phenylthio)butyl]-3-isoquinolinecarboxamide]",,0.01,,
"CC(C)c1nc(CN(C)C(=O)N[C@H](C(=O)N[C@@H](Cc2ccccc2)C[C@H](O)[C@H](Cc2ccccc2)NC(=O)OCc2cncs2)C(C)C)cs1 (relative stereo) [Ritonavir, [5S-(5R*,8R*,10R*,11R*)]-10-hydroxy-2-methyl-5-(1-methylethyl)-1-[2-(1-methylethyl)-4-thiazolyl]-3,6-dioxo-8,10-bis(phenylmethyl)-2,4,7,12-tetraazatridecane-13-hydroxy acid 5-thiazolylmethyl ester]",,0.026,,
Nc1nc(NC2CC2)c2ncn([C@H]3C=C[C@@H](CO)C3)c2n1 [Abacavir],,0.63,,
"O=C(C=C(O)c1nn[nH]n1)c1ccc(Cc2ccc(F)cc2)o1 [Compound I-3, 1-[5-(4-Fluorobenzyl)furan-2-yl]-3-hydroxy-3-(2H-tetrazol-5-yl)propenone]",,,121 to 123,1270
"O=C(C=C(O)c1nn[nH]n1)c1occc1Cc1ccc(F)cc1 [Compound I-11, 1-[3-(4-Fluorobenzyl)furan-2-yl]-3-hydroxy-3-(2H-tetrazol-5-yl)propenone]",,,171 to 174,1340
"O=C(C=C(O)c1nc[nH]n1)c1occc1Cc1ccc(F)cc1 [Compound I-12, 1-[3-(4-Fluorobenzyl)furan-2-yl]-3-hydroxy-3-(1H-1,2,4-triazol-3-yl)propenone]",,,221 to 223,1370
"CCCn1cc(Cc2ccc(F)cc2)c(C(=O)C=C(O)c2nc[nH]n2)c1 [Compound I-17, 1-[[4-(4-Fluorobenzyl)-1-propyl]pyrrol-3-yl]-3-hydroxy-3-(1H-1,2,4-triazol-3-yl)propenone]",,,210 to 211,4510
"O=C(C=C(O)c1nc[nH]n1)c1c[nH]cc1Cc1ccc(F)cc1 [Compound I-19, 1-[4-(4-fluorobenzyl)pyrrol-3-yl]-3-hydroxy-3-(1H-1,2,4-triazol-3-yl)propenone]",,,210 to 213,2020
"O=C(C=C(O)c1nn[nH]n1)c1ccoc1Cc1ccc(F)cc1 [Compound I-20, 1-[2-(4-Fluorobenzyl)furan-3-yl]-3-hydroxy-3-(2H-tetrazol-5-yl)propenone]",,,150 to 153,1020
"O=C(C=C(O)c1nn[nH]n1)c1cn(S(=O)(=O)c2ccccc2)cc1CCc1ccccc1 [Compound I-21, 1-[[1-Benzenesulfonyl-4-(2-phenylethyl)]pyrrol-3-yl]-3-hydroxy-3-(2H-tetrazol-5-yl)propenone]",,,178 to 181,1200
"O=C(C=C(O)c1nn[nH]n1)c1c[nH]cc1CCc1ccccc1 [Compound I-22, 3-Hydroxy-1-[(4-(2-phenylethyl))pyrrol-3-yl]-3-(2H-tetrazol-5-yl)propenone]",,,228 to 230,1910
"O=C(C=C(O)c1nc[nH]n1)c1ccoc1Cc1ccc(F)cc1 [Compound I-25, 1-[2-(4-Fluorobenzyl)furan-3-yl]-3-hydroxy-3-(1H-1,2,4-triazol-3-yl)propenone]",,,144 to 147,1530
"O=C(C=C(O)c1nc[nH]n1)c1cc(C(=O)O)n(Cc2ccccc2)c1 [Compound I-29, 1-[(1-Benzyl-5-carboxy)pyrrol-3-yl]-3-hydroxy-3-(1H-1,2,4-triazol-3-yl)propenone]",,,264 to 265,2960
"O=C(C=C(O)c1ccccn1)c1ccc(Cc2ccc(F)cc2)o1 [Compound I-46, 1-[5-(4-Fluorobenzyl)furan-2-yl]-3-hydroxy-3-(pyridin-2-yl)propenone]",,,84 to 85,1360
"O=C(C=C(O)c1ncccn1)c1ccc(Cc2ccc(F)cc2)o1 [Compound I-47, 1-[5-(4-Fluorobenzyl)furan-2-yl]-3-hydroxy-3-(pyrimidin-2-yl)propenone]",,,,1080
"O=C(C=C(O)c1ccccn1)c1cnc(Cc2ccc(F)cc2)o1 [Compound I-50, 1-[2-(4-Fluorobenzyl)oxazol-5-yl]-3-hydroxy-3-(pyridin-2-yl)propenone]",,,108 to 109,1230
"O=C(C=C(O)c1ncccn1)c1cnc(Cc2ccc(F)cc2)o1 [Compound I-51, 1-[2-(4-Fluorobenzyl)oxazol-5-yl]-3-hydroxy-3-(pyrimidin-2-yl)propenone]",,,97 to 100,1480
"CC(C)Nc1cccnc1N1CCN(C(=O)c2cc3cc(NS(C)(=O)=O)ccc3[nH]2)CC1 [Delavirdine, 1-[5-methanesulfonamideindolyl-2-carbonyl]-4-[3-(1-methylethylamino)-2-pyridyl]piperadine]",,0.012,,
"O=c1[nH]cnc2c1ncn2C1CCC(CO)O1 (stereo not shown) [Didanosine, 2′,3′-dideoxyinosine]",,0.64,,
"O=C1Nc2ccc(Cl)cc2C(C#CC2CC2)(C(F)(F)F)O1 [Efavirenz, (S)-(−)-6-chloro-4-(chloropropylethynyl)-1,4-dihydro-4-(trifluoromethyl)-2H-3,1-benzoxazin-2-one]",,0.00058,,
"CCOCn1c(Cc2ccccc2)c(C(C)C)c(=O)[nH]c1=O [Emivirine, 6-benzyl-1-(ethoxymethyl)-5-isopropyluracil]",,0.0045,,
"CC(C)(C)NC(=O)[C@@H]1CN(Cc2cccnc2)CCN1CC(O)C[C@@H](Cc1ccccc1)C(=O)N[C@H]1c2ccccc2C[C@H]1O (stereo partly drawn) [Indinavir, [1(1S,2R),5(s)]-2,3,5-trideoxy-N-(2,3-dihydro-2-hydroxy-1H-inden-1-yl)-5-[2-{[(1,1-dimethylethyl)amino]carbonyl}-4-(3-pyridinylmethyl)-1-piperadinyl]-2-(phenylmethyl)-D-erythro-pentonamide]",,0.014,,
Cc1ccnc2c1NC(=O)c1cccnc1N2C1CC1 [Nevirapine],,0.02,,
"CC(C)(C)NC(=O)[C@@H]1C[C@@H]2CCCC[C@@H]2CN1C[C@@H](O)[C@H](Cc1ccccc1)NC(=O)[C@H](CC(N)=O)NC(=O)c1ccc2ccccc2n1 [Saquinavir, N-tert-butyl-decahydro-2-[2(R)-hydroxy-4-phenyl-3(S)-{[N-(2-quinolylcarbony)-L-asparginyl]amino}butyl]-(4aS,8aS)-isoquinoline-3(S)-carboxamide]",,0.0037,,
"Nc1ccn([C@H]2CC[C@@H](CO)O2)c(=O)n1 [Zalcitabine, 2′,3′-dideoxycytidine]",,0.017,,
"(±)-α-[(2-acetyl-5-methylphenyl)amino]-2,6-dichlorobenzeneacetomide [Loviride]",0.011,,,
